US10752595B2, “Crystalline forms of a bromodomain and extraterminal protein inhibitor drug, processes for preparation thereof, and use thereof” (Crystal Pharmaceutical (Suzhou) Co., Ltd., priority 2016, dated 2020)
In brackets after ≈: the same amount, converted by molar mass. Entries after “also recorded” stand apart in the source; their conditions may differ.

Columns and labels:
[1] = Solubility study: saturated solutions in SGF and FeSSIF, concentration by HPLC; type: physicochemical; conditions: for Solubility FeSSIF: FeSSIF (fed state simulated intestinal fluids, pH=5.0); for Solubility SGF: SGF (simulated gastric fluids)
From the text: High Performance Liquid Chromatography (HPLC) data in the present disclosure were collected from an Agilent 1260 with Diode Array Detector (DAD). The HPLC method parameters for purity test in the present disclosure are as follows: • 1. Column: Waters XBridge C18 150×4.6 mm, 5 μm • 2. Mobile Phase: A: 0.1% TFA in H2O • B: 0.1% TFA in Acetonitrile
The prepared apabetalone Form CS2 was suspended into SGF (simulated gastric fluids) and FeSSIF (fed state simulated intestinal fluids, pH=5.0) to obtain saturated solutions. After being equilibrated for 1 h and 24 h, concentrations of the saturated solutions were measured by HPLC.
The prepared Form CS8 was suspended into SGF (simulated gastric fluids) and FeSSIF (fed state simulated intestinal fluids, pH=5.0) to obtain saturated solutions. After being equilibrated for 1 h, concentrations of the saturated solutions were measured by HPLC.
The prepared Form CS13 was suspended into SGF (simulated gastric fluids) and FeSSIF (fed state simulated intestinal fluids, pH=5.0) to obtain saturated solutions. After being equilibrated for 1 h, 4 h and 24 h, concentrations of the saturated solutions were measured by HPLC.
The prepared apabetalone Form CS20 was suspended into SGF (simulated gastric fluids) and FeSSIF (fed state simulated intestinal fluids, pH=5.0) to obtain saturated solutions. After being equilibrated for 1 h, 4 h and 24 h, concentrations of the saturated solutions were measured by HPLC.
The prepared solid of apabetalone Form CS1 was suspended into SGF (simulated gastric fluids) and FeSSIF (fed state simulated intestinal fluids, pH=5.0) to obtain saturated solutions. After being equilibrated for 1 h, 4 h and 24 h, concentrations of the saturated solutions were measured by HPLC.
The prepared solid of apabetalone Form CS7 was suspended into SGF (simulated gastric fluids) and FeSSIF (fed state simulated intestinal fluids, pH=5.0) to obtain saturated solutions. After being equilibrated for 1 h, 4 h and 24 h, concentrations of the saturated solutions were measured by HPLC.
The prepared solid of apabetalone Form CS9 was suspended into SGF (simulated gastric fluids) and FeSSIF (fed state simulated intestinal fluids, pH=5.0) to obtain saturated solutions. After being equilibrated for 1 h, 4 h and 24 h, concentrations of the saturated solutions were measured by HPLC.
The prepared solid of apabetalone Form CS11 was suspended into SGF (simulated gastric fluids) and FeSSIF (fed state simulated intestinal fluids, pH=5.0) to obtain saturated solutions. After being equilibrated for 1 h, 4 h and 24 h, concentrations of the saturated solutions were measured by HPLC.
The prepared solid of apabetalone Form CS4 was suspended into SGF (simulated gastric fluids) and FeSSIF (fed state simulated intestinal fluids, pH=5.0) to obtain saturated solutions. After being equilibrated for 1 h, 4 h and 24 h, concentrations of the saturated solutions were measured by HPLC.

[2] = Mechanical stability: manual grinding for 5 minutes, XRPD; type: physicochemical; conditions: ground manually in a mortar for 5 minutes
Description: Certain amount of Form CS1 was placed in a mortar and ground manually for 5 minutes. XRPD of the solid obtained was tested. Certain amount of Form CS4 was placed in a mortar and ground manually for 5 minutes. Crystalline form of the sample was checked by XRPD.

[3] = Stability study: open-dish storage in constant temperature and humidity chambers, XRPD and purity check; type: physicochemical; conditions: for Form change and purity decrease after storage / Purity after storage: open dish
Description: Form CS8 was placed in a constant temperature and humidity chamber at 25° C./60% RH for 2 weeks in open dish. Crystalline form of the sample were tested by XRPD and impurity of the sample were checked. […] Crystalline form of the sample were tested by XRPD and impurity of the sample were checked. […] Two samples of apabetalone Form CS1 were placed in constant temperature and humidity chambers at 25° C./60% RH and 40° C./75% RH for 10 months in open dishes. The samples were characterized by XRPD and chemical impurity. […] Three samples of apabetalone Form CS7 were placed in constant temperature and humidity chambers at 25° C./60% RH and 40° C./75% RH for 4 weeks and 80° C. for 1 day in open dishes. Crystalline form of the sample were tested by XRPD and impurity of the sample were checked. […] Two samples of apabetalone Form CS9 were placed in constant temperature and humidity chambers at 25° C./60% RH and 40° C./75% RH for 10 months in open dishes. Crystalline form of the sample were tested by XRPD and impurity of the sample were tested to check the stability of Form CS9. […] Two samples of apabetalone Form CS11 were placed in constant temperature and humidity chambers at 25° C./60% RH and 40° C./75% RH for 6 weeks in open dishes. Crystalline form of the sample were tested by XRPD and impurity of the sample were tested to check the stability of Form CS11. […] Two samples of apabetalone Form CS4 were placed in open dishes in constant temperature and humidity chambers at 25° C./60% RH and 40° C./75% RH for 10 months. Crystalline form of the sample were tested by XRPD and impurity of the sample were tested to check the stability of Form CS4.

[4] = Hygroscopicity by dynamic vapor sorption (DVS); type: physicochemical; conditions: for Hygroscopicity class: Chinese Pharmacopoeia 2015 criteria, 80% RH; for Hygroscopicity class / Weight Gain under 80% Relative Humidity: 25° C.; for Weight Gain under 80% Relative Humidity: DVS, about 10 mg of sample; for Form change after DVS test (XRPD): XRPD before and after DVS test
Description: Dynamic Vapor Sorption (DVS) was measured via a SMS (Surface Measurement Systems Ltd.) intrinsic DVS instrument. Its control software is DVS—Intrinsic control software, and its analysis software is DVS—Intrinsic Analysis software. Typical Parameters for DVS test are as follows: • Temperature: 25° C. • Gas and flow rate: N2, 200 mL/min • dm/dt: 0.002%/min • RH range: 0% RH to 95% RH Dynamic vapor sorption (DVS) was applied to test hygroscopicity of Form CS8 in the present disclosure with about 10 mg of sample. […] Dynamic vapor sorption (DVS) was applied to test hygroscopicity of Form CS1 of the present disclosure with about 10 mg of sample. […] Dynamic vapor sorption (DVS) was applied to test hygroscopicity of Form CS7 of the present disclosure with about 10 mg of samples. Dynamic vapor sorption (DVS) was applied to test hygroscopicity of Form CS9 of the present disclosure with about 10 mg of sample. […] Dynamic vapor sorption (DVS) was applied to test hygroscopicity of Form CS4 of the present disclosure with about 10 mg of sample.

[5] = Dissolution test of Form CS1 capsule; type: physicochemical; conditions: capsule with 50 mg API; HCl (0.1 mol/L), paddle, 900 mL, 75 rpm, 37° C.; at 20 minutes
Description: Certain amount of the API, microcrystalline cellulose, croscarmellose sodium according to Table 5.8 and 2 mg of magnesium stearate were weighted and blended for 2 minutes. Flakes were prepared using a manual tablet press at 5 KN pressure with a φ20 mm round tooling. The crushed flakes were manually sieved through 20 mesh sieve. 2 mg of magnesium stearate was added, and then the obtained powder was blended for 1 minute. The mixture was encapsulated into a 1# capsule shell, then the capsule was packed in 35 cc HDPE (high density polyethylene) bottle (one capsule per bottle) containing 1 g of desiccant. The bottle was then sealed by sealing machine. […] Dissolution test was performed on the obtained capsule. The conditions are as follows: Medium: HCl (0.1 mol/L) Method: Paddle Volume: 900 mL Speed: 75 rpm Temperature: 37° C.

[6] = Formulation study: form stability in the capsule preparation; type: physicochemical; conditions: capsule with microcrystalline cellulose, croscarmellose sodium, magnesium stearate
Description: Certain amount of the API, microcrystalline cellulose, croscarmellose sodium according to Table 5.8 and 2 mg of magnesium stearate were weighted and blended for 2 minutes. Flakes were prepared using a manual tablet press at 5 KN pressure with a φ20 mm round tooling. The crushed flakes were manually sieved through 20 mesh sieve. 2 mg of magnesium stearate was added, and then the obtained powder was blended for 1 minute. The mixture was encapsulated into a 1# capsule shell, then the capsule was packed in 35 cc HDPE (high density polyethylene) bottle (one capsule per bottle) containing 1 g of desiccant. The bottle was then sealed by sealing machine.

[7] = target: BRD4 of BET family (Homo sapiens, UniProt O60885); conditions: background statement, regulates ApoA-1 expression; cited from earlier work

SMILES | Solubility FeSSIF ([1]; equilibrated 1 h) [µg/mL] | Solubility FeSSIF ([1]; equilibrated 4 h) [µg/mL] | Solubility FeSSIF ([1]; equilibrated 24 h) [µg/mL] | Solubility SGF ([1]; equilibrated 1 h) [µg/mL] | Solubility SGF ([1]; equilibrated 4 h) [µg/mL] | Solubility SGF ([1]; equilibrated 24 h) [µg/mL] | Form change and crystallinity decrease after manual grinding (XRPD) [2] | Time the form is stable when stored ([3]; 25° C./60% RH) | Form change and purity decrease after storage ([3]; 25° C./60% RH, 10 months) | Purity after storage ([3]; 25° C./60% RH, 1 week) | Purity after storage ([3]; 25° C./60% RH, 2 weeks) | Purity after storage ([3]; 25° C./60% RH, 10 months) | Time the form is stable when stored ([3]; 40° C./75% RH) | Form change and purity decrease after storage ([3]; 40° C./75% RH, 10 months) | Purity after storage ([3]; 40° C./75% RH, 1 week) | Purity after storage ([3]; 40° C./75% RH, 2 weeks) | Purity after storage ([3]; 40° C./75% RH, 10 months) | Hygroscopicity class [4] | Weight Gain under 80% Relative Humidity [4] [%] | Form change after DVS test (XRPD) [4] | further results
COc1cc(OC)c2c(=O)[nH]c(-c3cc(C)c(OCCO)c(C)c3)nc2c1 [Form CS4, 2-[4-(2-hydroxyethoxy)-3,5-dimethylphenyl]-5,7-dimethoxyquinazolin-4(3H)-one] | 140 (≈ 378 µM) | 100 (≈ 270 µM) | 160 (≈ 432 µM) | 300 (≈ 810 µM) | 280 (≈ 756 µM) | 380 (≈ 1030 µM) | doesn't change after manual grinding; also recorded: no form change and obvious crystalline decrease | at least 10 months | No form change and obvious purity decrease | 99.10 | 99.06 | 99.04 | at least 10 months | No form change and obvious purity decrease | 99.10 | 98.99 | 99.02 | almost non hygroscopic | 0.12 | doesn't change; also recorded: No form change | Purity after storage ([3]; 25° C./60% RH, 4 weeks): 99.05; Purity after storage ([3]; 40° C./75% RH, 4 weeks): 99.04
COc1cc(OC)c2c(=O)[nH]c(-c3cc(C)c(OCCO)c(C)c3)nc2c1 [Form CS1, 2-[4-(2-hydroxyethoxy)-3,5-dimethylphenyl]-5,7-dimethoxyquinazolin-4(3H)-one] | 140 (≈ 378 µM) | 110 (≈ 297 µM) | 140 (≈ 378 µM) | 310 (≈ 837 µM) | 290 (≈ 783 µM) | 330 (≈ 891 µM) | no form change and obvious crystallity decrease; also recorded: doesn't change after manual grinding | at least 10 months | No form change and obvious purity decrease | 99.27 | 99.23 | 99.24 | at least 10 months | No form change and obvious purity decrease | 99.20 | 99.20 | 99.21 | almost non hygroscopic | 0.13 | No form change; also recorded: doesn't change | Purity after storage ([3]; 25° C./60% RH, 5 weeks): 99.25; Purity after storage ([3]; 40° C./75% RH, 5 weeks): 99.25; Released amount in dissolution test [5]: more than 90%; Stability of the form in the preparations [6]: stable in the preparations
COc1cc(OC)c2c(=O)[nH]c(-c3cc(C)c(OCCO)c(C)c3)nc2c1 [apabetalone, 2-[4-(2-hydroxyethoxy)-3,5-dimethylphenyl]-5,7-dimethoxyquinazolin-4(3H)-one] | – | – | – | – | – | – | – | – | – | – | – | – | – | – | – | – | – | – | – | – | Inhibition of BRD4 [7]: can inhibit BRD4
